Test results: patent publication US11053226B2, “KRAS G12C inhibitors and methods of using the same” (Amgen Inc., priority 2018, dated 2021)
Read-outs that look alike come from different tables or passages of the source.

Experiments:
[1] = test system: Phosphorylation of ERK1/2 in MIA PaCa-2 cells; experiment: Phospho-ERK1/2 MSD Assay; format: cell-based; settings: MiaPaCa-2 cells
Method: (§1) For compounds in Table 9, the following assay conditions were employed:
Phospho-ERK1/2 MSD Assay:
Sixteen hours prior to compound treatment, MIA PaCa-2 cells were seeded in 96-well cell culture plates at a density of 25,000 cells/well and incubated at 37° C., 5% CO2. […] Following compound treatment, cells were stimulated with 10 ng/mL EGF (Roche 11376454001) for 10 min, washed with ice-cold Dulbecco's phosphate-buffered saline, no Ca^2+ or Mg^2+ (ThermoFisher Scientific 14190144), and then lysed in RIPA buffer (50 mM Tris-HCl pH 7.5, 1% Igepal, 0.5% sodium deoxycholate, 150 mM NaCl, and 0.5% sodium dodecyl sulfate) containing protease inhibitors (Roche 4693132001) and phosphatase inhibitors (Roche 4906837001). […] Assay plates were read on a Meso Scale Discovery Sector Imager 6000, and data were analyzed using a 4-parameter logistic model to calculate IC50 values.

[2] = test system: Phosphorylation of ERK1/2 in A549 cells; experiment: Phospho-ERK1/2 MSD Assay (A549); format: cell-based
[3] = molecular target: GDP-bound KRAS protein (aa 1-169), containing both G12C and C118A amino acid substitutions (Homo sapiens (Human), UniProt P01116, C118A/G12C); experiment: Coupled Nucleotide Exchange Assay; format: biochemical
GDP-bound KRAS protein (aa 1-169), containing both G12C and C118A amino acid substitutions, sequence (P01116 other isoform, or with tags, fused parts or gaps G12C/C118A): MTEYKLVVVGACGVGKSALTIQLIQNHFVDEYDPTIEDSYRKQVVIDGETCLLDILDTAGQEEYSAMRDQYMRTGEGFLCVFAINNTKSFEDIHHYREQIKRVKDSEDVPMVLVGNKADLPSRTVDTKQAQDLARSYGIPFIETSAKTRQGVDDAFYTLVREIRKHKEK
Method: as §1
Coupled Nucleotide Exchange Assay:
The assay plates were then read on a PerkinElmer EnVision Multilabel Reader, using AlphaScreen® technology, and data were analyzed using a 4-parameter logistic model to calculate IC50 values.

[4] = Homo sapiens, MIA PaCa-2, 4 h, read-out: pERK IC50 (4 h, MiaPaCa-2), 4 h compound treatment
[5] = Homo sapiens, A549, 4 h, read-out: pERK IC50 (4 h, A549), 4 h compound treatment
[6] = read-out: Coupled Exchange IC50 (2 h), 2 h compound pre-incubation
[7] = first Coupled Exchange column, compound pre-incubation probably 5 min (rest of head not shown; b435 lists 5 min, 2 hours or 20 hours), read-out: Coupled Exchange IC50
[8] = read-out: Coupled Exchange IC50 (20 h), 20 h compound pre-incubation

Compound	IC50 [1, 4] [µM]	IC50 [2, 5] [µM]	also measured
C=CC(=O)N1CC(NC(=O)Cn2cc(C(=O)NCCOc3c(C)cccc3C)c3cc(Br)ccc32)C1 [Example 68]	8.81	> 100	
C=CC(=O)N1CC(NC(=O)Cn2cc(C(=O)N3CCc4cc(C(=O)OC)ccc4C3)c3cc(Br)ccc32)C1 [Example 124]	32.9	> 100	
C=CC(=O)N1CC(NC(=O)Cn2cc(C(=O)NCCCc3nc(C)cs3)c3cc(Br)ccc32)C1 [Example 172]	> 100	> 100	
C=CC(=O)N1CC(NC(=O)Cn2cc(C(=O)NCCC(=O)Nc3ccccc3CC)c3cc(Br)ccc32)C1 [Example 167]	> 100	> 100	
C=CC(=O)N1CC(NC(=O)Cn2cc(C(=O)NCCC(=O)Nc3cc(C)ccc3C)c3cc(Br)ccc32)C1 [Example 169]	> 100	> 100	
C=CC(=O)N1CC(NC(=O)Cn2cc(C(=O)N3CCN(c4ccc([N+](=O)[O-])cn4)CC3)c3cc(Br)ccc32)C1 [Example 99]	18.9	> 100	
C=CC(=O)N1CC(NC(=O)Cn2c(C)c(C(=O)N3CCN(c4ccc([N+](=O)[O-])cn4)CC3)c3cc(Br)ccc32)C1 [Example 46]	4.08	> 100	
C=CC(=O)N1CC(NC(=O)Cn2c(C)c(C(=O)N3CCc4c(cccc4OC)C3)c3cc(Cl)cc(C)c32)C1 [Example 3-1, 2-(5-Chloro-3-((5-methoxy-3,4-dihydro-2(1H)-isoquinolinyl)carbonyl)-2,7-dimethyl-1H-indol-1-yl)-N-(1-(2-propenoyl)-3-azetidinyl)acetamide]		> 100	
C=CC(=O)N1CC(NC(=O)Cn2cc(C(=O)NCc3ccccc3)c3cc(Br)ccc32)C1 [Example 163]		> 100	
C=CC(=O)N1CC(NC(=O)Cn2c(C)c(C(=O)N3CCOC(C)(C)C3)c3cc(Br)ccc32)C1 [Example 64]	7.74	> 100	
C=CC(=O)N1CC(NC(=O)Cn2cc(C(=O)N3CCc4cc(Br)ccc4C3)c3cc(Br)ccc32)C1 [Example 106]			IC50 ([1]; read-out: pERK IC50 (4 h, MiaPaCa-2), 4 h compound treatment): 22.2 µM; IC50 ([2]; read-out: pERK IC50 (4 h, A549), 4 h compound treatment): 44.7 µM
C=CC(=O)N1CC(NC(=O)Cn2c(C)c(C(=O)N3CCN(c4ccc(C)cn4)CC3)c3cc(Br)ccc32)C1 [Example 29]	2.66	> 100	
C=CC(=O)N1CC(NC(=O)Cn2cc(C(=O)N3CCO[C@H](c4ccccc4)C3)c3cc(Br)ccc32)C1 [Example 103]	21.6	> 100	
C=CC(=O)N1CC(NC(=O)Cn2c(C)c(C(=O)N3CCN(c4ccc(C#N)cn4)CC3)c3cc(Br)ccc32)C1 [Example 83]	13.6	> 100	
C=CC(=O)N1CC(NC(=O)Cn2c(C)c(C(=O)N3CCN(c4ccc(Br)cn4)CC3)c3cc(Br)ccc32)C1 [Example 34]	3.06	> 100	
C=CC(=O)N1CC(NC(=O)Cn2cc(C(=O)N3CCc4ccccc4C3)c3cc(Br)ccc32)C1 [Example 129]		> 100	
C=CC(=O)N1CC(NC(=O)Cn2cc(C(=O)N3CCc4c(C#N)cccc4C3)c3cc(Br)ccc32)C1 [Example 134]	38	> 100	
C=CC(=O)N1CC(NC(=O)Cn2cc(C(=O)N(C)Cc3ccccc3)c3cc(Br)ccc32)C1 [Example 155]		> 100	
C=CC(=O)N1CC(NC(=O)Cn2cc(C(=O)N3CCN(c4cccc(C)n4)CC3)c3cc(Br)ccc32)C1 [Example 48]	4.56	> 33.3	
C=CC(=O)N1CC(NC(=O)Cn2cc(C(=O)NCCN(C)c3cccc(C)c3)c3cc(Br)ccc32)C1 [Example 173]	> 100	> 100	
C=CC(=O)N1CC(NC(=O)Cn2cc(C(=O)N3CCc4c(Cl)cccc4C3)c3cc(Br)ccc32)C1 [Example 109]		21.3	
C=CC(=O)N1CC(NC(=O)Cn2cc(C(=O)N3CCc4c(Br)cc(C)cc4C3)c3cc(Br)ccc32)C1 [Example 120]	30.8	28.4	
C=CC(=O)N1CC(NC(=O)C(C)n2c(C)c(C(=O)N3CCc4c(cccc4OC)C3)c3cc(Cl)ccc32)C1 (stereo not shown) [Example 126]	33.9	48.4	
C=CC(=O)N1CC(NC(=O)Cn2c(C)c(C(=O)N3CCN(c4ccc(C)cn4)CC3)c3cc(Cl)cc(C)c32)C1 [Example 24]		> 100	
C=CC(=O)N1CC(NC(=O)Cn2cc(C(=O)NCCOc3ccccc3C)c3cc(Br)ccc32)C1 [Example 156]	53.4	> 100	

Compound	IC50 [1, 4] [µM]	IC50 [2, 5] [µM]	also measured
C=CC(=O)N1CC(NC(=O)Cn2cc(C(=O)N3CCN(c4ccc(C)cn4)CC3)c3cc(Br)ccc32)C1 [Example 45]	3.96	> 100	
C=CC(=O)N1CC(NC(=O)Cn2cc(C(=O)N3CCc4cc(F)ccc4C3)c3cc(Br)ccc32)C1 [Example 114]		> 100	
C=CC(=O)N1CC(NC(=O)Cn2cc(C(=O)OC)c3cc(Br)ccc32)C1 [Example 108]	23.5	> 100	
C=CC(=O)N1CC(NC(=O)Cn2cc(C(=O)On3nnc4cccnc43)c3cc(Br)ccc32)C1 [Example 175]	> 100	> 100	
C=CC(=O)N1CC(NC(=O)Cn2cc(C(=O)NCC(c3sccc3C)N(C)C)c3cc(Br)ccc32)C1 (stereo not shown) [Example 127]	34.3	> 100	
C=CC(=O)N1CC(NC(=O)Cn2c3c(c4cc(Br)ccc42)CCN(C(=O)OC(C)(C)C)C3)C1 [Example 100]			IC50 ([1]; Homo sapiens, MIA PaCa-2, read-out: pERK IC50 (4 h), 4 h compound treatment): 19.4 µM; IC50 ([2]; Homo sapiens, read-out: pERK IC50 (4 h), 4 h compound treatment): > 33.3 µM
C=CC(=O)N1CC(NC(=O)Cn2cc(C(=O)N3CCN(c4ccc(OC)cn4)CC3)c3cc(Br)ccc32)C1 [Example 93]	16.5	> 100	
C=CC(=O)N1CC(NC(=O)Cn2c(C)c(C(=O)N3CCc4ncccc4C3)c3cc(Br)ccc32)C1 [Example 116]	28.5	> 100	
C=CC(=O)N1CC(NC(=O)Cn2cc(C(=O)N3CCN(c4ccccn4)CC3)c3cc(Br)ccc32)C1 [Example 60]		> 100	
C=CC(=O)N1CC(NC(=O)Cn2cc(C(=O)NCCc3ccccc3)c3cc(Br)ccc32)C1 [Example 140]		> 100	
C=CC(=O)N1CC(N(C)C(=O)Cn2cc(C(=O)N3CCc4c(ccnc4OC)C3)c3c(Cl)c(Cl)ccc32)C1 [Example 7]	1.33		IC50 [3, 6]: 0.45 µM
C=CC(=O)N1CC(NC(=O)Cn2c(C3CC3)c(C(=O)N3CCc4c(cccc4OC)C3)c3cc(Cl)cc(C)c32)C1 [Example 1-7, 2-(5-Chloro-2-cyclopropyl-3-((5-methoxy-3,4-dihydro-2(1H)-isoquinolinyl)carbonyl)-7-methyl-1H-indol-1-yl)-N-(1-(2-propenoyl)-3-azetidinyl)acetamide]		60.4	
C=CC(=O)N1CC(NC(=O)Cn2c(C)c(C(=O)N3CCc4c(cccc4OC)C3)c3cc(Br)ccc32)C1C (stereo not shown) [Example 44]		> 100	
C=CC(=O)N1CC(NC(=O)Cn2cc(C(=O)N3CCc4c(cccc4OC)C3)c3cc(Br)cc(C)c32)C1 [Example 82]		> 100	
C=CC(=O)N1CC(NC(=O)Cn2cc(CC(=O)NCC3Cc4ccccc4CN3C)c3cc(Br)ccc32)C1 (stereo not shown) [Example 331]			IC50 [3, 7]: 22.4 µM
C=CC(=O)N1CC(NC(=O)Cn2c(C)c(-c3ccccc3C(C)(C)C)c3cc(Cl)ccc32)C1 [Example 318]			IC50 [3, 7]: 16.2 µM; IC50 ([3]; second Coupled Exchange column, read-out: Coupled Exchange IC50): 98.9 µM
C=CC(=O)N1CC(NC(=O)Cn2ccc3ccccc32)C1 [Example 183]			IC50 [3, 6]: > 250 µM; IC50 [3, 8]: > 250 µM
C=CC(=O)N1CC(NC(=O)Cn2cc(C#N)c3cc(Br)ccc32)C1 [Example 211]			IC50 [3, 6]: 22.9 µM; IC50 [3, 8]: 5.2 µM
C=CC(=O)N1CC(NC(=O)Cn2ccc3cc(Br)cc(C)c32)C1 [Example 190]			IC50 ([3]; read-out: Coupled Exchange IC50 (5 min), 5 min compound pre-incubation): 193 µM; IC50 [3, 6]: 16 µM; IC50 [3, 8]: 1.76 µM
C=CC(=O)N1CC(NC(=O)Cn2c(C)c(-c3cnccc3C3=CCCCC3)c3cc(Cl)cc(C)c32)C1 [Example 335]			IC50 [3, 7]: 0.8 µM
C=CC(=O)N1CC(NC(=O)Cn2cc(CC(=O)N3CCOC4CC(N(C)C)CCC43)c3cc(Br)ccc32)C1 (stereo not shown) [Example 329]			IC50 [3, 7]: 85.8 µM
C=CC(=O)N1CC(NC(=O)Cn2cc(-c3cnn(C)c3)c3cc(Cl)ccc32)C1 [Example 197]			IC50 [3, 6]: 24.5 µM; IC50 [3, 8]: 5.51 µM
C=CC(=O)N1CC(NC(=O)Cn2c3c(c4cc(Br)ccc42)CN(C(C)=O)CC3)C1 [Example 251]			IC50 [3, 6]: > 250 µM; IC50 [3, 8]: 7.91 µM
C=CC(=O)N1CC(NC(=O)Cn2cc(-c3cccc(-c4ccccc4)c3)c3cc(Br)cc(C)c32)C1 [Example 265]			IC50 [3, 6]: > 250 µM; IC50 [3, 8]: 3.24 µM
C=CC(=O)N1CC(NC(=O)Cn2cc(C(=O)N3CCc4c(F)cccc4C3)c3cc(Br)ccc32)C1 [Example 118]		> 100	
